Legend:
Assay type in all cases: cell-based
[1] = target: T1, α1β2 GABAA receptor (α1 subunit) (Homo sapiens, UniProt P14867+P47870); experiment: voltage clamp: block of CGS […] potentiation (data not shown); […] [3H]flumazenil displacement at […] in bovine membranes
T1 construct: gene GABRA1; recombinant α1β2 receptor (devoid of the γ subunit) in Xenopus laevis oocytes; with GABAA receptor β2 subunit (GABRB2)
T1 sequence (P14867 28-456): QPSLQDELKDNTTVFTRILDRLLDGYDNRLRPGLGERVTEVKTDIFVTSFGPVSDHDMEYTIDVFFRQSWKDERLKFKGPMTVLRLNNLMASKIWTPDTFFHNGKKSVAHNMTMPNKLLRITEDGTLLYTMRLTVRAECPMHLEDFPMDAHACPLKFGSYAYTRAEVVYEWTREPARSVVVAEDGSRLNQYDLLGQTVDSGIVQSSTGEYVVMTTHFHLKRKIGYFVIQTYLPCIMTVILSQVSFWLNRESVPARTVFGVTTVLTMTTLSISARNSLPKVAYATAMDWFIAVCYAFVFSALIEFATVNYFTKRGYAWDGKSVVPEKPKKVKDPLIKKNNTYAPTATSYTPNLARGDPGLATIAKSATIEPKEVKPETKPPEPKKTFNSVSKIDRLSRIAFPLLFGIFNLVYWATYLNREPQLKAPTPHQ
T1 sequence (P47870 26-512): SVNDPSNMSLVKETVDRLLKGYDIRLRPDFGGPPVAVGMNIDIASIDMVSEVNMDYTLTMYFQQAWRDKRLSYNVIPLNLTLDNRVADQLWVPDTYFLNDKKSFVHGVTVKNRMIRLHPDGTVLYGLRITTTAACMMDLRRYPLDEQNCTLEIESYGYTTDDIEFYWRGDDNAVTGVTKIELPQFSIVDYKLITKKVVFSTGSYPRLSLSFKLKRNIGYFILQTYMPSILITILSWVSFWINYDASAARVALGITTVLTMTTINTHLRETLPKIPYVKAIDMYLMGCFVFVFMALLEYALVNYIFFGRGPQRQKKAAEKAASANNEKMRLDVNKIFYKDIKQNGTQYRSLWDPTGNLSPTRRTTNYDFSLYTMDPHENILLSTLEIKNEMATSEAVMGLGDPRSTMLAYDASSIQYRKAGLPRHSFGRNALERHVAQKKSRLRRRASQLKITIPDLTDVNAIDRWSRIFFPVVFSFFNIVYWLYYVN

[2] = target: T1, α1β2 GABAA receptor (α1 subunit); experiment: voltage clamp: reduction of CGS […] potentiation (data not shown); […] [3H]flumazenil displacement at […] in bovine membranes
[3] = target: T2, α1β2γ2L GABAA receptor (α1 subunit) (Homo sapiens, UniProt P14867+P18507); experiment: two-electrode voltage clamp of GABA currents in oocytes; also […] [3H]flumazenil displacement at […] in bovine membranes
T2 construct: gene GABRA1; recombinant α1β2γ2L receptor in Xenopus laevis oocytes; with GABAA receptor β2 (GABRB2) and γ2L (GABRG2) subunits
T2 sequence (P18507 40-475, one chain of several): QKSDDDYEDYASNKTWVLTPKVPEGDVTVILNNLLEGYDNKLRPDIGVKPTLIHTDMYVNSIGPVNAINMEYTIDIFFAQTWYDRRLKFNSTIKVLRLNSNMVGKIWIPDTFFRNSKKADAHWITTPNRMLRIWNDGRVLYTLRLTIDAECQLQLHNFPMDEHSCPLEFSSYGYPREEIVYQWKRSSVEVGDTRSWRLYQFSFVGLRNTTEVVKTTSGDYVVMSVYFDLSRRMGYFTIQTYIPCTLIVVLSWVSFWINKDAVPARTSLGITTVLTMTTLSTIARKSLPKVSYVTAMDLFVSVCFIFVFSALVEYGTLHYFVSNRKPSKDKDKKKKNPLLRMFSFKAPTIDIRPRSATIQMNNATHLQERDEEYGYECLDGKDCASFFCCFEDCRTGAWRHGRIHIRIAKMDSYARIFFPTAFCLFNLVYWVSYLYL

## COc1ccc2cnc3c(-c4cccs4)cnn3c2c1 [5d, 3-(Thien-2-yl)-8-methoxypyrazolo[1,5-a]quinazoline]
[1]
  voltage clamp: block of CGS 9895 potentiation (data not shown); >80% [3H]flumaze: compounds 5d and 5e, which in the same test completely blocked or strongly reduced the potentiation of the GABAA receptor function

## COc1ccc2cnc3c(-c4ccsc4)cnn3c2c1 [5e, 3-(Thien-3-yl)-8-methoxypyrazolo[1,5-a]quinazoline]
[2]
  voltage clamp: reduction of CGS 9895 potentiation (data not shown); >80% [3H]flu: compounds 5d and 5e, which in the same test completely blocked or strongly reduced the potentiation of the GABAA receptor function

## COc1ccc2cnc3c(C(=O)c4cccs4)cnn3c2c1 [6b, 3-(Thien-2-ylcarbonyl)-8-methoxypyrazolo[1,5-a]quinazoline]
[3]
  EC50: 12 µM

From PMC6470557, “Synthesis of New GABAA Receptor Modulator with Pyrazolo[1,5-a]quinazoline (PQ) Scaffold” (International Journal of Molecular Sciences, 2019)
